Data from US20250282820A1, “PEPTIDE COMPLEX HAVING TRKB BINDING ACTIVITY” (PEPTIDREAM INC, priority 2022, published 2025).
*1 amine or outer side, *2 acyl side, *3 side chain or, on linkers, in order; H or OH if unused. Where a SMILES comes first, the peptide text is derived from it. Bridges are numbered along the chain shown (N, C = ends). Roman numbers before positions name the chains, in order. [ ]: non-standard residue; d: D form. CO(CH2CH2O)13CH2CH2CO = O=C(CCOCCOCCOCCOCCOCCOCCOCCOCCOCCOCCOCCOCCOCCC(=O)[*:2])[*:1]; 3Pal = N[C@@H](Cc1cccnc1)C(=O)O

Assays:
Format in all cases: cell-based
[1] = molecular target: T1, TrkB (CellSensor TrkB-NFAT-bla CHO-K1 Cell) (Homo sapiens, UniProt Q16620); test: pERK1/2 AlphaLISA assay (phosphorylation of ERK) for TrkB agonist activity; conditions: class = peptide concentration giving 50% or more activity; BDNF maximum signal = 100%, no stimulation = 0%; 15 minutes of stimulation
T1 construct: host or cells: CHO-K1 (CellSensor TrkB-NFAT-bla CHO-K1)
Method in brief: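 TrkB-NFAT-bla CHO-K1 cells were starved 4 h in 0.1% BSA medium and then stimulated 15 min with peptide or BDNF; p-ERK1/2 (Thr202/Tyr204) in the lysate was read by AlphaLISA SureFire. Activity % was scaled to the BDNF maximum (100%) and no stimulation (0%); A = ≥50% at 1 nM, B = ≥50% at 10 nM; curves were 8 points, 4-fold dilutions from 100 nM.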

[2] = molecular target: T1, TrkB (CellSensor TrkB-NFAT-bla CHO-K1 Cell); test: NFAT transcriptional reporter assay for TrkB agonist activity; conditions: class = peptide concentration giving 50% or more activity; BDNF maximum signal = 100%, no stimulation = 0%; 5 hours culture
Method in brief: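 CHO-K1 TrkB-NFAT-bla cells, 12,500 per well, treated overnight-seeded with peptide or BDNF for 5 h, then CCF4-AM substrate 2 h in the dark; 460/535 nm emission ratio. Activity scaled to maximal BDNF signal (100%) and unstimulated (0%); grades A/B/C mean ≥50% activity at 1, 10 or 100 nM.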

[3] = molecular target: TrkB (Homo sapiens, UniProt Q16620); test: PathHunter eXpress TrkB Functional Assay (phosphorylation of TrkB); conditions: maximum signal induced by BDNF = 100%; stimulation for 3 hours
Method in brief: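 PathHunter TrkB cells, cultured 48 h, were stimulated 3 h with peptide or BDNF, then detection reagent added for 60 min at room temperature; luminescence read. Activity (%) scaled from unstimulated (0%) to maximal BDNF signal (100%); peptides tested over 0.006104-100 nM, 0.032-100 nM or 0.01-10 nM ranges.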

T1 sequence (Q16620 32-822): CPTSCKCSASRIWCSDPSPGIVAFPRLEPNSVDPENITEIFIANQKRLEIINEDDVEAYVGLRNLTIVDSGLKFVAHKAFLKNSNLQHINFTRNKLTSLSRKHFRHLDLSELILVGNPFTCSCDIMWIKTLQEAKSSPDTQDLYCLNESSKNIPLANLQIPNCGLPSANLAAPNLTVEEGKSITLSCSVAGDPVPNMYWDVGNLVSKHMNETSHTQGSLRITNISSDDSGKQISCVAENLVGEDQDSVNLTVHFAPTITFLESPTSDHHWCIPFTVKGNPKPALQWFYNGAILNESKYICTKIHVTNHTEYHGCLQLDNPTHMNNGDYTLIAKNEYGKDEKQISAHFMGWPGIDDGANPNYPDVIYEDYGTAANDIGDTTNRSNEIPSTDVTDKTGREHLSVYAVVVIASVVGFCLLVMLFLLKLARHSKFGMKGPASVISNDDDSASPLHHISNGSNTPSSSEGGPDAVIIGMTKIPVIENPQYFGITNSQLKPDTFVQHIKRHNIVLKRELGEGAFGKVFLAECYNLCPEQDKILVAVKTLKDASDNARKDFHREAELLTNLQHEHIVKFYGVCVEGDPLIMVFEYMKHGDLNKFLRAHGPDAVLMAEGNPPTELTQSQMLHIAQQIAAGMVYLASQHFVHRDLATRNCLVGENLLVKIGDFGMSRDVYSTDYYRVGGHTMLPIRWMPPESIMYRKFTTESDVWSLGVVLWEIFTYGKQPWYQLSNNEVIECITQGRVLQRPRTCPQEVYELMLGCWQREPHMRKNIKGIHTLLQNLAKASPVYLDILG
Chain of TrkB (Q16620 32-822): as above

SMILES | pERK (aLISA) Assay Results [1] | NFAT Assay Results [2] | Emax [3]
CC(C)[C@@H]1NC(=O)[C@H](Cc2cccnc2)NC(=O)[C@H](CCC(=O)O)NC(=O)[C@H](CO)NC(=O)[C@H](Cc2ccc(O)cc2)NC(=O)[C@H]([C@@H](C)O)NC(=O)[C@@H]2CCCN2C(=O)[C@H](Cc2c[nH]c3ccccc23)NC(=O)[C@H](Cc2cccnc2)NC(=O)[C@H](Cc2ccc(O)cc2)NC(=O)[C@@H]2CCCN2C(=O)[C@H](CO)NC(=O)[C@H](Cc2ccccc2)NC(=O)CSC[C@@H](C(=O)NCC(=O)N[C@@H](CCCCNC(=O)CCOCCOCCOCCOCCOCCOCCOCCOCCOCCOCCOCCOCCOCCC(=O)NCCCC[C@H](NC(=O)CNC(=O)[C@@H]2CSCC(=O)N[C@@H](Cc3ccccc3)C(=O)N[C@@H](CO)C(=O)N3CCC[C@H]3C(=O)N[C@@H](Cc3ccc(O)cc3)C(=O)N[C@@H](Cc3cccnc3)C(=O)N[C@@H](Cc3c[nH]c4ccccc34)C(=O)N3CCC[C@H]3C(=O)N[C@@H]([C@@H](C)O)C(=O)N[C@@H](Cc3ccc(O)cc3)C(=O)N[C@@H](CO)C(=O)N[C@@H](CCC(=O)O)C(=O)N[C@@H](Cc3cccnc3)C(=O)N[C@@H](C(C)C)C(=O)N[C@@H](CCC(=O)O)C(=O)N2)C(N)=O)C(N)=O)NC(=O)[C@H](CCC(=O)O)NC1=O [compound 48] (I: {CH2CO}-FSPY[3Pal]WPTYSE[3Pal]VECGK-NH2 / II: {CH2CO}-FSPY[3Pal]WPTYSE[3Pal]VECGK-NH2; linker I:17-II:17 via CO(CH2CH2O)13CH2CH2CO; thioether I:N-I:15, II:N-II:15) | A (The peptide with 50% or more activity when 1 nM of the peptide was added was evaluated as A) | A (The peptide with 50% or more activity when 1 nM of the peptide was added was evaluated as A) | 102%
CC(C)[C@@H]1NC(=O)[C@H](Cc2cccnc2)NC(=O)[C@H](CCC(=O)O)NC(=O)[C@H](CO)NC(=O)[C@H](Cc2ccc(O)cc2)NC(=O)[C@H]([C@@H](C)O)NC(=O)[C@@H]2CCCN2C(=O)[C@H](Cc2c[nH]c3ccccc23)NC(=O)[C@H](Cc2cccnc2)NC(=O)[C@H](Cc2ccc(O)cc2)NC(=O)[C@@H]2CCCN2C(=O)[C@H](CCC(=O)O)NC(=O)[C@H](Cc2ccccc2)NC(=O)CSC[C@@H](C(=O)NCC(=O)N[C@@H](CCCCNC(=O)CCOCCOCCOCCOCCOCCOCCOCCOCCOCCOCCOCCOCCOCCC(=O)NCCCC[C@H](NC(=O)CNC(=O)[C@@H]2CSCC(=O)N[C@@H](Cc3ccccc3)C(=O)N[C@@H](CCC(=O)O)C(=O)N3CCC[C@H]3C(=O)N[C@@H](Cc3ccc(O)cc3)C(=O)N[C@@H](Cc3cccnc3)C(=O)N[C@@H](Cc3c[nH]c4ccccc34)C(=O)N3CCC[C@H]3C(=O)N[C@@H]([C@@H](C)O)C(=O)N[C@@H](Cc3ccc(O)cc3)C(=O)N[C@@H](CO)C(=O)N[C@@H](CCC(=O)O)C(=O)N[C@@H](Cc3cccnc3)C(=O)N[C@@H](C(C)C)C(=O)N[C@@H](CCC(=O)O)C(=O)N2)C(N)=O)C(N)=O)NC(=O)[C@H](CCC(=O)O)NC1=O [compound 56] (I: {CH2CO}-FEPY[3Pal]WPTYSE[3Pal]VECGK-NH2 / II: {CH2CO}-FEPY[3Pal]WPTYSE[3Pal]VECGK-NH2; linker I:17-II:17 via CO(CH2CH2O)13CH2CH2CO; thioether I:N-I:15, II:N-II:15) | A (The peptide with 50% or more activity when 1 nM of the peptide was added was evaluated as A) | A (The peptide with 50% or more activity when 1 nM of the peptide was added was evaluated as A) | 93%
